According to patent publication US20200131238A1, “METHOD FOR PROMOTING ADIPOCYTE DIFFERENTIATION AND OBESITY-RELATED DISEASE TREATMENT” (AMERICAN UNIVERSITY, priority 2018, published 2020):

Key:
NRG1 = NRG1 isoform expression in stem cells after DAC treatment (RT-qPCR); format: cell-based, human
Source text: A. Microarray data showing that NRG1 is preferentially expressed in clonal cell line AF2, both stem cells and adipocytes. UCP1 is a brown adipose tissue (BAT) marker and UCP2 is a white adipose tissue (WAT) marker. Adiponectin (ADIPOQ) shown as a differentiation control. P-values calculated relative to NRG4 using 1-way ANOVA. Analysis of gene expression in mouse adipose precursor cell lines isolated from inguinal (B) or perigonadal (C) depots of a male mouse. […] NRG, Neuregulin; UCP, uncoupling protein; AdipoQ, adiponectin. Isoform-specific epigenetic induction of NRG1 expression in primary human cells, clonal (D) and raw processed lipoaspirate (E). Expression of NRG1 is induced with demethylating agent decitabine (DAC). Types I-III represent distinct transcriptional start sites within the NRG1 locus and produce different mRNA isoforms (see FIG. 7D for map). The Type III isoform is specifically DAC responsive. P-values derived from Tukey's HSD post-hoc test after ANOVA and are relative to corresponding matched DMSO control. Note Type II isoform expression was not detected in the stem cells.
First, by evaluating gene expression in stem cells immediately after DAC treatments (rather than differentiated cells), we minimized secondary gene expression changes caused by the differentiation process itself. […]

AF2 cells = assay: adipose differentiation assay with AF2 clonal cells; format: cell-based, human
Source text: Because patient-derived cells, such as ASCs, are highly heterogeneous, it is vital to ensure that the differences in cell behavior are truly fate decisions and not a measure of non-stem cell contamination (perhaps immune cells, fibroblasts, or other cells). We therefore have performed our experiments with clonally-derived cells expanded in the inventor's laboratory. Many of our experiments use a single clonal line isolated from ASC080414A (Zen-Bio, Inc.), called the AF2 line. Clonal isolation has the advantage of minimizing both genetic and epigenetic variance, which enabled us to identify a highly significant signal in our data (FIG. 6E).
First, by evaluating gene expression in stem cells immediately after DAC treatments (rather than differentiated cells), we minimized secondary gene expression changes caused by the differentiation process itself. Second, hypothesizing that the expression of driver genes will more strongly correlate with differentiation efficiency than passenger genes, we obtained the Pearson's correlation between candidate gene expression in stem cells and the relative formation of adipocytes after 14-18 days of adipogenic induction. Third, we used a clonal cell line (AF2) in order to minimize epigenetic variability between cells. […]

## Nc1ncn([C@H]2C[C@H](O)[C@@H](CO)O2)c(=O)n1 [DAC, 5-aza-2′-deoxycitidine]
NRG1; 1 μM DAC
  up-regulation of one NRG1 isoform (Type III) relative to DMSO control: approximately 10 fold
NRG1; DAC vs DMSO
  increase of NRG1 Type I isoform: ~2 fold

B1: NRG1 EGF-β peptide: recombinant NRG1 EGF-β domain peptide, 65 amino acids, BioLegend Cat # 711104 (protein, listed as Homo sapiens)
chain: SHLVKCAEKEKTFCVNGGECFMVKDLSNPSRYLCKCPNEFTGDRCQNYVMASFYKHLGIEFMEAE
AF2 cells; AF2 clonal cells
  differentiation induction by recombinant NRG1 peptide added to culture media: able to recapitulate the differentiation induction observed with DAC
AF2 cells; stem cells, FIGS. 7A,B,C
  activating dose of NRG1 peptide: 200 ng/mL
